The values below come from the SangsterLogP compilation.

Data set [1] in a line: method code SF-TN, from DOI: 10.1085/jgp.71.1.93, PMID: 621494.
Data set [2] in a line: method code SF-AS, from DOI: 10.1016/s0045-6535(00)00181-8, PMID: 11272912.
Assay in data set [3]: not given
The source holds these as a separate data set.

The nature of data set [4]: from KURIHARA, Norio.; Fujita, Toshio. (1983). Composition of Partition Coefficients of Polychlorinated Hydrocarbons (Commemoration Issue Dedicated to Professor Yuzo Inouye on the Occasion of his ….
Data set [5] in a line: method code SF-AS,RC, from DOI: 10.2307/3575891, PMID: 7122830.
The nature of data set [6]: method code SF-AS, from DOI: 10.2116/analsci.8.761. Particulars: pH 6.0.
Data set [7] in a line: method code SF-AS, from Halmekoski, J.; Hannikainen, H. (1964). Rm values of hydroxy-substituted benzoic acids and partition coefficients of the acids between water and aliphatic alcohols. Suomen Kemist. B, 37, 221-226.
Assay in data set [8]: not given
The source holds these as a separate data set.

Data set [9] is described as follows: method code SF-HPLC, from DOI: 10.1016/0378-5173(83)90028-5.
Data set [10] in a line: method code SF-AS, from DOI: 10.1016/0003-9861(82)90097-2, PMID: 6284047. Particulars: pH 7.4.
Data set [11] in a line: method code SF-AS, from DOI: 10.1016/0378-5173(80)90061-7.
Data set [12] can be described thus: method code SF-CR+AS, from Korenman, I. (1982). The influence of substituents on the partition of phenols between water and organic solvents. Russ. J. Phys. Chem., 56(3)458-460.
Assay in data set [13]: not given
The source holds these as a separate data set.

A short description of data set [14]: method code SF, from Brown, J.; Yu, N.; Cory, M.; Bicknell, R.; Taylor, D. (1978). In vivo evaluation of the radiosensitizing and cytotoxic properties of newly synthesized electron-affinic drugs. 3, 206-211.
Assay in data set [15]: not given
This is another data set of the same source.

Data set [16] can be described thus: method code SF-GLC, from DOI: 10.1271/bbb1961.46.2755.
The nature of data set [17]: method code SF-TN, from DOI: 10.2116/analsci.13.897. Particulars: pH 2.0.
Data set [18] in a line: method code SF, from DOI: 10.1021/jm020367+, PMID: 12502371.
Data set [19] in a line: method code SF-AS, from DOI: 10.1016/0006-2952(74)90620-0, PMID: 4822742. Particulars: pH 7.4.
Assay in data set [20]: not given
The source holds these as a separate data set.

A short description of data set [21]: method code SF-AS, from DOI: 10.1002/etc.5620181211.
Assay in data set [22]: not given
This is another data set of the same source.

Assay in data set [23]: not given
This is another data set of the same source.

Data set [24] in a line: method code SF-HPLC, from DOI: 10.1021/je049947x.
A short description of data set [25]: method code SF-HPLC, from DOI: 10.1080/02772248909357333.
Assay in data set [26]: not given
The source holds these as a separate data set.

Assay in data set [27]: not given
This is another data set of the same source.

The nature of data set [28]: method code SF, from DOI: 10.2307/3575246, PMID: 7367588.
Data set [29] can be described thus: method code SF-RC, from DOI: 10.1038/sj.bjc.6601862, PMID: 15150578.
Data set [30] in a line: method code SF-RC, from DOI: 10.1002/jps.2600800111, PMID: 2013848.
A short description of data set [31]: method code SF, from DOI: 10.1021/bk-1995-0606.ch003.
Data set [32] can be described thus: method code SF, from DOI: 10.1016/j.tca.2016.07.020. Particulars: pH 7.4.
Data set [33] is described as follows: method code SF-AS, from DOI: 10.1016/0891-5849(94)00112-w, PMID: 7744299. Particulars: pH 7.5.
A short description of data set [34]: method code SF-AS, from Kosanovic, D.; Dumanovic, D.; Jovanovic, J. (1988). Solubility in octanol And the octanol-water partition coefficients of some 4(5)- and 5-nitroimidazoles. 53(10)559-563.
The nature of data set [35]: method code SF-AS, from DOI: 10.1016/j.jhazmat.2007.11.074, PMID: 18180104.
Assay in data set [36]: not given
The source holds these as a separate data set.

Assay in data set [37]: not given
The source holds these as a separate data set.

Data set [38] in a line: method code SF-AS, from Ganga, L. X. J. S., & Zun-Yaob, L. H. W. (2009). Determination of lgKow and QSPR Study on Some Fluorobenzene Derivatives. Jiegou Huaxue, 28(10).
Assay in data set [39]: not given
The source holds these as a separate data set.

The nature of data set [40]: method code SF-LC/MS, from DOI: 10.1002/rcm.3594, PMID: 18543375. Particulars: pH 7.4.
A short description of data set [41]: method code SF, from Korenman, I. M.; Klyukvina, T. D. (1972). Extraction of methylfurfural from aqueous solutions. Zh. Prikl. Khim., 45(11)2697-2699.
Data set [42] is described as follows: method code SF-AS, from DOI: 10.1016/s0022-3565(25)24763-2, PMID: 2019981. Particulars: pH 7.4.
Assay in data set [43]: not given
This is another data set of the same source.

Data set [44] in a line: method code …, from Buur, A., & Bundgaard, H. (1984). Prodrugs of 5-fluorouracil. II. Hydrolysis kinetics, bioactivation, solubility and lipophilicity of N-alkoxycarbonyl derivatives of 5-fluorouracil. Arch. Pharm. …. Particulars: pH 4.0.
The nature of data set [45]: method code SF, from DOI: 10.1016/0005-2744(69)90103-x, PMID: 4387594.
Data set [46] is described as follows: method code SF-AS, from DOI: 10.1111/j.2042-7158.1981.tb11766.x. Particulars: pH 1.0.
Assay in data set [47]: not given
This is another data set of the same source.

Data set [48] can be described thus: method code SF-HPLC, from DOI: 10.1002/jps.2600750520, PMID: 3735094. Particulars: pH 4.0.

Structures are written as SMILES.

Molecule `CCCCC(O)C(=O)O` (centres undefined) displayed a logP in [1] of 0.81.
In turn, `O=Cc1cc(Br)ccc1O` came in with a logP in data set [2] of 2.5.
On to `S=C=Nc1ccc(Br)cc1`, for which the logP is 4.03.
The molecule `Cc1ccc([N+](=O)[O-])cc1N` registered a logP in [3] of 1.87.
Take `ClC1C=CCC(Cl)C1Cl` (centres undefined): the logP in [4] was determined as 2.84.
Consider `COCC(O)Cn1cc(Br)nc1[N+](=O)[O-]` (centres undefined), for which the logP in [5] is 0.46.
In data set [6], `OCc1ccc(O)cc1` came in with a logD of 0.48.
In [7], `O=C(O)c1cc(O)ccc1O` came in with a logP of 1.12.
In data set [8], `COC(=O)c1nc(Cl)c(Cl)c(N)c1Cl` registered a logP of 2.3.
As for `O=[N+]([O-])O[C@@H]1CO[C@H]2[C@@H]1OC[C@@H]2O`, the logP in data set [9] was -0.15.
Molecule `CC1(C)CCC=[N+]1[O-]` came in with a logD in data set [10] of -1.03.
For the molecule `CCOC(=O)CCCO`, the logP in data set [11] was determined as 0.43.
As for `Nc1cc([N+](=O)[O-])cc(Cl)c1O`, the logP in [12] worked out at 1.53.
Molecule `CC(CCl)OC(C)CCl` (centres undefined) returned a logP in [13] of 2.48.
As to `CC(O)Cn1ccnc1[N+](=O)[O-]` (centres undefined), the logP in data set [14] was -0.16.
On to `COC(=O)c1ccco1`, for which the logP in data set [15] worked out at 1.08.
Molecule `CCCS(=O)(=O)CCC` returned a logP in data set [16] of 0.39.
For `O=C(O)C1CCCC1`, in data set [17], the logD was 1.52.
Consider `Nc1n[n+]([O-])c2cc(Cl)ccc2[n+]1[O-]`, for which the logP in [18] was found to be 0.46.
`CC1=NS(=O)(=O)c2cc(Cl)ccc2N1` returned a logD in data set [19] of 1.08.
In data set [20], `CON=C(C#N)C(=O)NCC(=O)O` gave a logP of -0.58.
`Cc1cccnc1N` returned a logP in data set [21] of 0.01.
For `Oc1ccc(O)c(Cl)c1`, in data set [22], the logP stood at 1.4.
Turning to `O=C(O)c1ccc([N+](=O)[O-])cc1`, the logP in data set [23] stood at 1.9.
With `CC(C)Nc1nc(N)nc(Cl)n1`, the logP in [24] came to 1.49.
In turn, `COc1nn(CSP(=S)(OC)OC)c(=O)s1` displayed a logP in data set [25] of 2.22.
As to `Nc1cccc(O)c1`, the logP in data set [26] stood at 0.28.
For `CNC(=O)N(C)c1nnc(C(F)(F)F)s1`, the logP in data set [27] is 1.46.
The molecule `Cn1c(C(O)CO)cnc1[N+](=O)[O-]` (centres undefined) registered a logP in [28] of -0.89.
In data set [29], `O=C(Cn1ccnc1[N+](=O)[O-])NCCF` displayed a logP of -0.8.
Consider `Nc1ccc(S(=O)(=O)O)cc1`, for which the logP in data set [30] is -2.16.
Take `CCc1ccc[nH]1`: the logP in data set [31] stood at 1.59.
`NC(=S)c1ccncc1` displayed a logD in data set [32] of 0.61.
Consider `O=Nc1ccccc1`, for which the logD in [33] worked out at 1.86.
As to `CC(C)c1nc([N+](=O)[O-])c[nH]1`, the logP in [34] stood at 0.9.
In data set [35], `CNc1ccc([N+](=O)[O-])cc1` had a logP of 1.98.
As for `Nc1cc(N=O)ccc1O`, the logP in data set [36] was 0.03.
In the case of `Oc1ccc(O)cc1`, the logP in [37] amounted to 0.61.
The molecule `Fc1ccc(F)cc1` yielded a logP in data set [38] of 2.26.
`Nc1cc(Cl)c(S(N)(=O)=O)cc1S(N)(=O)=O`: in [39], the logP is -0.56.
On to `c1ccc2[nH]cnc2c1`, for which the logD in [40] is 1.53.
In data set [41], `Cc1ccc(C=O)o1` registered a logP of 0.67.
In turn, `CCc1occc(=O)c1O` gave a logD in [42] of 0.6.
With `C1=CC=CCC=C1`, in data set [43], the logP worked out at 2.63.
For `CCOC(=O)n1c(=O)[nH]cc(F)c1=O`, the logD in data set [44] is 0.11.
In data set [45], `Nc1ccccc1F` yielded a logP of 1.26.
Turning to `O=C(O)c1ccc(O)cc1`, in [46], the logD amounted to 1.56.
`COCC(C)OC(C)=O` (centres undefined) registered a logP in data set [47] of 0.56.
In turn, `O=C(OCCCl)n1cc(F)c(=O)[nH]c1=O` gave a logD in data set [48] of 0.02.
